From patent US20260138957A1, “UREA-LINKED 2-AMINOIMIDAZOLE DIMER POTENTIATORS” (UNIVERSITY OF NOTRE DAME DU LAC, priority 2022, published 2026)

Experiments:
[1] = test system: A. baumannii strain 5075 (AB5075); assay: Standalone MIC against AB5075 (compound or antibiotic alone); type: cell-based, Acinetobacter baumannii; design: MIC against AB5075 (inherent anti-bacterial activity): unit not given beside the values; conditions: compound alone; for MIC: Acinetobacter baumannii, AB5075; for MIC against AB5075 (inherent anti-bacterial activity): newly synthesized material
Text: Dimers were first analyzed for standalone toxicity against AB5075.

[2] = test system: A. baumannii strain 5075 (AB5075); assay: Clarithromycin potentiation against AB5075 (CLR MIC in presence of adjuvant); type: cell-based, Acinetobacter baumannii; conditions: for CLR potentiation activity (in words): AB5075, 30 μM
[3] = test system: panel of A. baumannii isolates; assay: Standalone MIC/toxicity against panel of A. baumannii isolates; type: cell-based, Acinetobacter baumannii
AB5075 = assay: Potentiation of azithromycin, erythromycin and rifampin against AB5075; type: cell-based, Acinetobacter baumannii; conditions: for fold decrease of RIF MIC: AB5075, adjuvant at 10 μM; for activity in combination with AZM, ERM and RIF (in words): AB5075, adjuvant at ≤30% their MIC
K. pneumoniae 2146 = assay: Combination with RIF against K. pneumoniae 2146; type: cell-based, Klebsiella pneumoniae; conditions: K. pneumoniae 2146, compared with the parent dimers
HepG2 cells = assay: Cytotoxicity, XTT assay with HepG2 cells; conditions: mammalian cell toxicity
[4] = test system: panel of A. baumannii isolates; assay: CLR potentiation against panel of A. baumannii isolates; type: cell-based, Acinetobacter baumannii; conditions: 25 AB strains, adjuvant at 10 μM (4.8 μg/mL) or less
[5] = Microsomal (metabolic) stability; type: in vitro ADME; conditions: 60 minutes
A. baumannii = assay: CLR adjuvant activity with exogenous LOS added to the media; type: cell-based, Acinetobacter baumannii; conditions: LOS from AB5075 at 0.2 mg/mL or 0.5 mg/mL
Method: First, we examined the impact that addition of MgCl2 had on activity. Divalent cations, such as Mg^2+, are known to stabilize the outer membrane of gram-negative bacteria and the activity of membrane disruptors are known to be muted/abrogated by the addition of such cations. When the media was supplemented with MgCl2 (20 mM final concentration), activity was essentially abolished. As suppression of activity could conceivably originate from either blocking the compound's mechanism of action or simply making the membrane more impermeable that leads to the inability of the compound to penetrate the outer membrane, we next studied the impact that the addition of exogenous LOS had upon activity.

Plasma stability = type: in vitro ADME; conditions: 4 hours
AB 5075 = assay: Colistin MIC in absence or presence of compounds against AB 5075; type: cell-based, Acinetobacter baumannii; conditions: adjuvant at 30 μM, AB5075
Text: However, dropping LOS comes with fitness costs such as reduced growth rates, lower virulence, and increased sensitivity towards certain antibiotics.

MIC [1] [µM]	Clarithromycin (CLR) MIC ([2]; adjuvant at 7.5 μM, AB5075) [µg/mL]	Fold Reduction of CLR MIC ([2]; adjuvant at 7.5 μM, AB5075) [fold]	Clarithromycin (CLR) MIC ([2]; adjuvant at 10 μM, AB5075) [µg/mL]	Fold Reduction of CLR MIC ([2]; adjuvant at 10 μM, AB5075) [fold]	Clarithromycin (CLR) MIC ([2]; adjuvant at 20 μM, AB5075) [µg/mL]	Fold Reduction of CLR MIC ([2]; adjuvant at 20 μM, AB5075) [fold]	Clarithromycin (CLR) MIC ([2]; adjuvant at 30 μM, AB5075) [µg/mL]	Fold Reduction of CLR MIC ([2]; adjuvant at 30 μM, AB5075) [fold]	SMILES	further results
–	1	32	0.5	64	0.0625	512	0.03125	1024	Nc1nc(-c2cccc(NC(=O)Nc3cccc(-c4c[nH]c(N)n4)c3)c2)c[nH]1 [Compound 5]	MIC ([1]; value in brackets): 447 µg/mL; MIC against AB5075 (inherent anti-bacterial activity) [1]: 200; Clarithromycin (CLR) MIC ([2]; adjuvant at 5 μM, AB5075): 4 µg/mL; Fold Reduction of CLR MIC ([2]; adjuvant at 5 μM, AB5075): 8 fold; Colistin MIC (AB 5075): 2 µg/mL; microsomal stability (in words) [5]: steady concentration over 60 minutes; activity in combination with AZM, ERM and RIF (in words) (AB5075): significant activity; plasma stability (in words) (Plasma stability): steady concentration over 4 hours
> 200	1	32	0.5	64	0.25	128	0.125	256	Nc1nc(-c2cc(NC(=O)Nc3ccc(F)c(-c4c[nH]c(N)n4)c3)ccc2F)c[nH]1 [Compound 9b]	Clarithromycin (CLR) MIC ([2]; adjuvant at 5 μM, AB5075): 2 µg/mL; Fold Reduction of CLR MIC ([2]; adjuvant at 5 μM, AB5075): 16 fold
> 200	–	–	–	–	–	–	32	1	Cc1cc(-c2c[nH]c(N)n2)ccc1NC(=O)Nc1ccc(-c2c[nH]c(N)n2)cc1C [Compound 14c]	CLR potentiation activity (in words) [2]: abolished all activity
> 200	–	–	–	–	–	–	8	4	Nc1nc(-c2ccc(F)c(NC(=O)Nc3ccc(-c4c[nH]c(N)n4)c(F)c3)c2)c[nH]1 [Compound 9i]	–
> 200	–	–	–	–	–	–	32	1	Nc1nc(-c2ccc(NC(=O)Nc3ccc(-c4c[nH]c(N)n4)c(Cl)c3)cc2Cl)c[nH]1 [Compound 14b]	CLR potentiation activity (in words) [2]: abolished all activity
> 200	0.25	128	0.125	256	0.125	256	0.0625	512	Nc1nc(-c2cc(F)cc(NC(=O)Nc3ccc(-c4c[nH]c(N)n4)c(F)c3)c2)c[nH]1 [Compound 9j]	Clarithromycin (CLR) MIC ([2]; adjuvant at 5 μM, AB5075): 1 µg/mL; Fold Reduction of CLR MIC ([2]; adjuvant at 5 μM, AB5075): 32 fold
> 200	–	–	–	–	–	–	4	8	Nc1nc(-c2ccc(NC(=O)Nc3ccc(-c4c[nH]c(N)n4)cc3F)c(F)c2)c[nH]1 [Compound 14a]	–
200	–	–	–	–	–	–	8	4	COc1cc(-c2c[nH]c(N)n2)ccc1NC(=O)Nc1ccc(-c2c[nH]c(N)n2)cc1OC [Compound 9d]	CLR potentiation activity (in words) [2]: abolished all activity
> 200	2	16	1	32	0.5	64	0.0625	512	Nc1nc(-c2ccc(NC(=O)Nc3ccc(-c4c[nH]c(N)n4)c(F)c3)cc2)c[nH]1 [Compound 9m]	–

Second part, the molecule before the results:

SMILES	MIC [1] [µM]	Clarithromycin (CLR) MIC ([2]; adjuvant at 7.5 μM, AB5075) [µg/mL]	Fold Reduction of CLR MIC ([2]; adjuvant at 7.5 μM, AB5075) [fold]	Clarithromycin (CLR) MIC ([2]; adjuvant at 10 μM, AB5075) [µg/mL]	Fold Reduction of CLR MIC ([2]; adjuvant at 10 μM, AB5075) [fold]	Clarithromycin (CLR) MIC ([2]; adjuvant at 20 μM, AB5075) [µg/mL]	Fold Reduction of CLR MIC ([2]; adjuvant at 20 μM, AB5075) [fold]	Clarithromycin (CLR) MIC ([2]; adjuvant at 30 μM, AB5075) [µg/mL]	Fold Reduction of CLR MIC ([2]; adjuvant at 30 μM, AB5075) [fold]	further results
Nc1nc(-c2cc(F)cc(NC(=O)Nc3cc(F)cc(-c4c[nH]c(N)n4)c3)c2)c[nH]1 [Compound 9g]	> 200	0.25	128	0.125	256	0.0625	512	≤0.0625	–	CLR MIC ([2]; adjuvant at 2.5 μM, AB5075): 1 µg/mL; Fold Reduction of CLR MIC ([2]; adjuvant at 2.5 μM, AB5075): 32 fold; Clarithromycin (CLR) MIC ([2]; adjuvant at 5 μM, AB5075): 0.5 µg/mL; Fold Reduction of CLR MIC ([2]; adjuvant at 5 μM, AB5075): 64 fold; toxicity of compound alone (in words) [3]: no toxicity; fold decrease of RIF MIC (AB5075): 32 fold; activity in combination with AZM, ERM and RIF (in words) (AB5075): significant activity; potentiation of RIF (in words) (K. pneumoniae 2146): greater potentiation activity at lower concentrations; IC50, HepG2 cells (HepG2 cells): > 256 µg/mL; IC50 (HepG2 cells; read-out: IC50, HepG2 cells): > 530 µM; lowering of CLR MIC values [4]: at least four-fold
Nc1nc(-c2ccc(NC(=O)Nc3ccc(-c4c[nH]c(N)n4)c(F)c3)cc2F)c[nH]1 [Compound 9a]	> 200	0.5	64	0.125	256	0.0625	512	0.03125	1024	Clarithromycin (CLR) MIC ([2]; adjuvant at 5 μM, AB5075): 2 µg/mL; Fold Reduction of CLR MIC ([2]; adjuvant at 5 μM, AB5075): 16 fold; toxicity of compound alone (in words) [3]: no toxicity; microsomal stability (in words) [5]: steady concentration over 60 minutes; fold decrease of RIF MIC (AB5075): 32 fold; activity in combination with AZM, ERM and RIF (in words) (AB5075): significant activity; potentiation of RIF (in words) (K. pneumoniae 2146): greater potentiation activity at lower concentrations; CLR adjuvant activity with exogenous LOS (in words) (A. baumannii): no loss of adjuvant activity; plasma stability (in words) (Plasma stability): steady concentration over 4 hours; lowering of CLR MIC values [4]: at least four-fold
Nc1nc(-c2ccc(NC(=O)Nc3ccc(-c4c[nH]c(N)n4)cc3)cc2)c[nH]1 [Compound 3]	–	8	4	4	8	0.5	64	0.125	256	MIC against AB5075 (inherent anti-bacterial activity) [1]: > 200; Colistin MIC (AB 5075): 2 µg/mL; activity in combination with AZM, ERM and RIF (in words) (AB5075): significant activity
Nc1nc(-c2cccc(NC(=O)Nc3cc(F)cc(-c4c[nH]c(N)n4)c3)c2)c[nH]1 [Compound 9l]	> 200	1	32	0.5	64	0.0625	512	0.0625	512	–
Nc1nc(-c2ccc(NC(=O)Nc3ccc(F)c(-c4c[nH]c(N)n4)c3)cc2F)c[nH]1 [Compound 9h]	> 200	–	–	–	–	4	8	0.5	64	–
Nc1nc(-c2ccc(NC(=O)Nc3ccc(-c4c[nH]c(N)n4)c(C(F)(F)F)c3)cc2C(F)(F)F)c[nH]1 [Compound 9c]	> 200	–	–	–	–	–	–	2	16	CLR potentiation activity (in words) [2]: abolished all activity
Nc1nc(-c2cccc(NC(=O)Nc3cccc(-c4c[nH]c(N)n4)c3F)c2F)c[nH]1 [Compound 9f]	> 200	2	16	1	32	0.5	64	0.25	128	–
Nc1nc(-c2ccc(F)c(NC(=O)Nc3cc(-c4c[nH]c(N)n4)ccc3F)c2)c[nH]1 [Compound 9e]	> 200	–	–	–	–	–	–	32	1	–
Nc1nc(-c2ccc(NC(=O)Nc3cccc(-c4c[nH]c(N)n4)c3)cc2)c[nH]1 [Compound 4]	–	–	–	16	2	1	32	0.125	256	MIC ([1]; value in brackets): > 447 µg/mL; MIC against AB5075 (inherent anti-bacterial activity) [1]: > 200; Colistin MIC (AB 5075): 0.25 µg/mL; activity in combination with AZM, ERM and RIF (in words) (AB5075): significant activity
